Among the test systems are OVCAR-5 ovarian; PC-3 prostate; MALME-3M melanoma; SF-268 CNS; BT-549 breast; KM12 colon; SF-539 CNS; SK-MEL-5 melanoma; HT29 colon; HL-60(TB) leukemia.
Holding throughout (test): inhibition of tumour cell growth, NCI panel, 48 h

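Interpolation was linear, between the two tested concentrations surrounding the appropriate level; five concentrations were tested over 48 hours in 96-well plates. GI50 marks 50% less growth. Definition used: TGI = concentration required for complete inhibition of growth.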 Some results are limits rather than exact numbers.

On to `CC(C)(C)c1ccc(C2CC(=O)C3=C(C2)Nc2ccccc2N(C(=O)c2ccccc2Cl)C3c2ccc(F)cc2)cc1` (centres undefined), for which the GI50 in the assay on OVCAR-5 ovarian is more than 100 µM; with PC-3 prostate it was 7.01 µM; in the assay on MALME-3M melanoma, more than 100 µM; in the assay on SF-268 CNS, more than 100 µM; in the assay with BT-549 breast, more than 100 µM; in the assay on KM12 colon, more than 100 µM. The GI50 in the assay on SF-539 CNS and in the assay with SK-MEL-5 melanoma was more than 100 µM each time. Also, the TGI with OVCAR-5 ovarian, in the assay with PC-3 prostate, with MALME-3M melanoma, with SF-268 CNS, in the assay on BT-549 breast and in the assay with KM12 colon was more than 100 µM in each case. The TGI in the assay with SF-539 CNS and in the assay with SK-MEL-5 melanoma was more than 100 µM in each case.
Turning to `COc1ccc(Nc2ncnc3ccc(-c4cncc(NS(C)(=O)=O)c4)cc23)cc1Cl`, the GI50 in the assay on OVCAR-5 ovarian was 2.87 µM; with PC-3 prostate it was 2.83 µM; in the assay with MALME-3M melanoma, 1.55 µM; in the assay with SF-268 CNS, 2.3 µM; in the assay on BT-549 breast, 1.67 µM; in the assay with KM12 colon, 3.15 µM. In addition, the GI50 in the assay with SF-539 CNS is 1.84 µM; with SK-MEL-5 melanoma it was 1.61 µM; with HT29 colon, 2.07 µM; in the assay with HL-60(TB) leukemia, 2.02 µM. In addition, the TGI turned out to be 29 µM with OVCAR-5 ovarian; 16.6 µM with PC-3 prostate; 11.2 µM in the assay on MALME-3M melanoma; 16.4 µM in the assay with SF-268 CNS; 7.12 µM in the assay on BT-549 breast; 11.7 µM in the assay with KM12 colon. Besides, the TGI in the assay with SF-539 CNS amounted to 7.72 µM; with SK-MEL-5 melanoma, 3.21 µM; in the assay on HT29 colon, 6.93 µM; in the assay on HL-60(TB) leukemia it was 6.72 µM.
Regarding `CC(C)[P+](c1ccccc1)(c1ccccc1)c1ccccc1`, the GI50 with OVCAR-5 ovarian was 28.5 µM; with PC-3 prostate, 2.42 µM; in the assay on SF-268 CNS, 5.11 µM; in the assay with BT-549 breast, 5.55 µM; with KM12 colon it was 2.57 µM; in the assay with SF-539 CNS, 15.6 µM. Also, the results for the GI50 with SK-MEL-5 melanoma, with HT29 colon and in the assay on HL-60(TB) leukemia were 2.22 µM, 5.8 µM and 2.24 µM, respectively. Moreover, the TGI in the assay with OVCAR-5 ovarian was more than 100 µM; with PC-3 prostate, 34.6 µM; in the assay with SF-268 CNS, more than 100 µM; in the assay with BT-549 breast, more than 100 µM; with KM12 colon it was more than 100 µM; in the assay on SF-539 CNS it was more than 100 µM. Also, the figures for the TGI in the assay with SK-MEL-5 melanoma, in the assay on HT29 colon and in the assay on HL-60(TB) leukemia were 7.9 µM, more than 100 µM and 7.5 µM, respectively.
In the case of `NC1=NC(SCc2ccccc2CCl)c2ncn(Cc3ccccc3CCl)c2N1` (centres undefined), the GI50 was 2.7 µM in the assay on OVCAR-5 ovarian; 1.79 µM in the assay on PC-3 prostate; 1.44 µM in the assay with MALME-3M melanoma; 2.01 µM in the assay on SF-268 CNS; 1.7 µM in the assay with BT-549 breast; 1.74 µM in the assay with KM12 colon. In addition, the GI50 with SF-539 CNS is 2.92 µM; with SK-MEL-5 melanoma, 1.71 µM; with HT29 colon it was 1.88 µM. The TGI in the assay with OVCAR-5 ovarian is 9.88 µM; in the assay on PC-3 prostate, 3.52 µM; with MALME-3M melanoma, 3.2 µM; with SF-268 CNS it was 10.2 µM; in the assay on BT-549 breast, 3.35 µM; in the assay on KM12 colon, 3.6 µM. The TGI in the assay with SF-539 CNS worked out at 10.4 µM; in the assay with SK-MEL-5 melanoma, 3.25 µM; in the assay on HT29 colon it was 4.01 µM.
Regarding `CN1CCN(Cc2ccc(NC(=O)c3[nH]ncc3Nc3ncnc4[nH]ccc34)cc2)CC1`, the GI50 in the assay with OVCAR-5 ovarian is 0.456 µM; in the assay on PC-3 prostate, 0.372 µM; with MALME-3M melanoma, 0.472 µM; in the assay on SF-268 CNS, 0.374 µM; in the assay on BT-549 breast, 0.297 µM; in the assay on KM12 colon, 0.347 µM. Moreover, the GI50 was 0.133 µM in the assay with SF-539 CNS, 0.25 µM in the assay with SK-MEL-5 melanoma and 0.27 µM in the assay on HL-60(TB) leukemia. In addition, the TGI with OVCAR-5 ovarian is 17.4 µM; in the assay on PC-3 prostate it was more than 100 µM; in the assay on MALME-3M melanoma, 0.959 µM; in the assay with SF-268 CNS it was 1.42 µM; with BT-549 breast, 1.07 µM; with KM12 colon it was 10.9 µM. For the same compound, the TGI was 0.429 µM with SF-539 CNS, 0.778 µM in the assay on SK-MEL-5 melanoma and 0.626 µM in the assay with HL-60(TB) leukemia.
As to `COc1cc(C)cc(C(=O)/C=C/c2ccccc2)c1O`, the TGI in the assay on OVCAR-5 ovarian worked out at 34.9 µM; with PC-3 prostate, 49.8 µM; in the assay with SF-268 CNS, 88.1 µM; with BT-549 breast it was 37.8 µM; in the assay on KM12 colon it was 41.2 µM; with SK-MEL-5 melanoma, 40.4 µM. The TGI is 34.7 µM in the assay with HT29 colon and more than 100 µM with HL-60(TB) leukemia.
In the case of `C1CSC[C@H]2COC[C@@H](CSCCS1)S2`, the TGI in the assay on OVCAR-5 ovarian, with PC-3 prostate, with SF-268 CNS, in the assay on BT-549 breast, in the assay on KM12 colon and with SF-539 CNS was more than 100 µM each time. Also, the TGI in the assay on SK-MEL-5 melanoma, in the assay with HT29 colon and with HL-60(TB) leukemia was more than 100 µM in each case.
On to `COc1ccc2c(c1O)[C@@]13CCCC=C1[C@@H](C2)[N+](C)(C)CC3`, for which the TGI in the assay on OVCAR-5 ovarian, in the assay on PC-3 prostate, in the assay on MALME-3M melanoma, with SF-268 CNS, in the assay with BT-549 breast and with KM12 colon was more than 100 µM in each case. Further, the TGI in the assay on SK-MEL-5 melanoma, in the assay with HT29 colon and in the assay with HL-60(TB) leukemia was more than 100 µM each time.
Consider `O=C1CC(c2cccc(Cl)c2)Oc2ccccc21` (centres undefined), for which the TGI with PC-3 prostate is 30.4 µM; in the assay with SF-268 CNS, 50.6 µM; with KM12 colon, 39.5 µM; in the assay on SF-539 CNS, 36.3 µM; in the assay with SK-MEL-5 melanoma, 37.6 µM; in the assay on HT29 colon, 33.3 µM. This compound also yielded a TGI with HL-60(TB) leukemia of 57.1 µM.
With `CC12OC(C(=O)C13CC3)C1C(=O)c3c(O)ccc(O)c3C(=O)C12` (centres undefined), the GI50 in the assay with OVCAR-5 ovarian was 19.4 µM; in the assay on PC-3 prostate, 16.5 µM; in the assay on MALME-3M melanoma, 13.7 µM; with SF-268 CNS it was 15.1 µM; with BT-549 breast, 22.1 µM; in the assay with KM12 colon, 23.5 µM. Moreover, the GI50 in the assay on SF-539 CNS was 19.4 µM; in the assay on HT29 colon, 16.2 µM. For the same compound, the TGI in the assay with OVCAR-5 ovarian was found to be 43.8 µM; in the assay on PC-3 prostate it was 37.1 µM; in the assay with MALME-3M melanoma, 30.5 µM; in the assay on SF-268 CNS it was 45.8 µM; with BT-549 breast it was 51.8 µM; in the assay with KM12 colon, 90.1 µM. Moreover, the TGI in the assay with SF-539 CNS was determined as 49.9 µM; in the assay with HT29 colon, 38.9 µM.

For the origin of these results see PubChem BioAssay (NCI).
